According to ChEMBL document CHEMBL1201862, “PubChem BioAssay data set” (2004):
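Exposure lasted 48 hours, with cells grown in 96-well plates and compounds tested at five concentrations. GI50 is the concentration that inhibits growth by half.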 Calls of active or inactive are those of the source. Cut-off read from the data, not from the text of the source: active = GI50 up to about 1.1 µM and inactive = higher.

Tests used:
Assay in all cases: growth of human tumour cells (NCI), 48 h
A498 = tested on: A498
EKVX = tested on: EKVX
HCC 2998 = tested on: HCC 2998
HL-60 = tested on: HL-60
HT-29 = tested on: HT-29
K562 = tested on: K562
MOLT-4 = tested on: MOLT-4
Malme-3M = tested on: Malme-3M
NCI-H23 = tested on: NCI-H23
OVCAR-3 = tested on: OVCAR-3
OVCAR-5 = tested on: OVCAR-5
RXF 393 = tested on: RXF 393
SF-268 = tested on: SF-268
SK-MEL-28 = tested on: SK-MEL-28
SK-MEL-2 = tested on: SK-MEL-2
SK-OV-3 = tested on: SK-OV-3
U-251 = tested on: U-251
UACC-257 = tested on: UACC-257
UACC-62 = tested on: UACC-62
UO-31 = tested on: UO-31

| Structure (SMILES) | GI50 (A498) | GI50 (EKVX) | GI50 (HCC 2998) | GI50 (HL-60) | GI50 (HT-29) | GI50 (K562) | GI50 (MOLT-4) | GI50 (Malme-3M) | GI50 (NCI-H23) | GI50 (OVCAR-3) | GI50 (OVCAR-5) | GI50 (RXF 393) | GI50 (SF-268) | GI50 (SK-MEL-28) | GI50 (SK-MEL-2) | GI50 (SK-OV-3) | GI50 (U-251) | GI50 (UACC-257) | GI50 (UACC-62) | GI50 (UO-31) |
| --- | --- | --- | --- | --- | --- | --- | --- | --- | --- | --- | --- | --- | --- | --- | --- | --- | --- | --- | --- | --- |
| CC(=O)O[C@H]1CC[C@H]2[C@@H]3CCC(C(C)=O)[C@H](C(=O)O)[C@H]3CC[C@]12C (stereo not given in full) | > 100 µM (inactive) | > 100 µM (inactive) | > 100 µM (inactive) | > 100 µM (inactive) | > 100 µM (inactive) | > 100 µM (inactive) | > 100 µM (inactive) | > 100 µM (inactive) | > 100 µM (inactive) | > 100 µM (inactive) | > 100 µM (inactive) | > 100 µM (inactive) | > 100 µM (inactive) | > 100 µM (inactive) | > 100 µM (inactive) | > 100 µM (inactive) | > 100 µM (inactive) | > 100 µM (inactive) | > 100 µM (inactive) | > 100 µM (inactive) |
| CC1(C)OC[C@H](C(=N)OCc2ccccc2)O1 | > 100 µM (inactive) | > 100 µM (inactive) | > 100 µM (inactive) | > 100 µM (inactive) | > 100 µM (inactive) | > 100 µM (inactive) | > 100 µM (inactive) | > 100 µM (inactive) | > 100 µM (inactive) | > 100 µM (inactive) | > 100 µM (inactive) | > 100 µM (inactive) | > 100 µM (inactive) | > 100 µM (inactive) | > 100 µM (inactive) | > 100 µM (inactive) | > 100 µM (inactive) | > 100 µM (inactive) | > 100 µM (inactive) | > 100 µM (inactive) |
| CCCCC(CC)C(=O)Oc1ccc(C(=O)c2ccccc2)c(O)c1 (stereo not given) | 45.9 µM (inactive) | 35.6 µM (inactive) | 52.8 µM (inactive) | 55.1 µM (inactive) | 55.7 µM (inactive) | 25.9 µM (inactive) | 24.9 µM (inactive) | 40.6 µM (inactive) | 35.2 µM (inactive) | 40.5 µM (inactive) | 38.5 µM (inactive) | 49.8 µM (inactive) | 34.5 µM (inactive) | 36.8 µM (inactive) | 56.4 µM (inactive) | > 100 µM (inactive) | 46.7 µM (inactive) | 38.5 µM (inactive) | 32 µM (inactive) | 20.9 µM (inactive) |
| O=C(NN1C(=O)CSC1c1ccc(C(F)(F)F)cc1)c1ccncc1 (stereo not given) | > 31.6 µM (inactive) | > 100 µM (inactive) | > 100 µM (inactive) | > 100 µM (inactive) | > 100 µM (inactive) | > 100 µM (inactive) | > 100 µM (inactive) | > 100 µM (inactive) | > 100 µM (inactive) | > 100 µM (inactive) | > 100 µM (inactive) | 97.3 µM (inactive) | > 100 µM (inactive) | > 100 µM (inactive) | > 100 µM (inactive) | > 100 µM (inactive) | > 100 µM (inactive) | > 100 µM (inactive) | > 100 µM (inactive) | > 100 µM (inactive) |
| O=c1oc2ccccc2n1P(=O)(Oc1ccc(Cl)cc1)n1c(=O)oc2ccccc21 | > 100 µM (inactive) | > 100 µM (inactive) | 46.6 µM (inactive) | 41.8 µM (inactive) | > 100 µM (inactive) | 42.2 µM (inactive) | 39.5 µM (inactive) | > 100 µM (inactive) | > 100 µM (inactive) | > 100 µM (inactive) | > 100 µM (inactive) | > 100 µM (inactive) | > 100 µM (inactive) | > 100 µM (inactive) | 55 µM (inactive) | > 100 µM (inactive) | > 100 µM (inactive) | > 100 µM (inactive) | 61 µM (inactive) | > 100 µM (inactive) |
| CCCCCCCCCCCCCCCc1nnc(S)[nH]1 | > 100 µM (inactive) | > 100 µM (inactive) | > 100 µM (inactive) | 49.8 µM (inactive) | > 100 µM (inactive) | 52.6 µM (inactive) | 20.8 µM (inactive) | > 100 µM (inactive) | > 100 µM (inactive) | > 100 µM (inactive) | > 100 µM (inactive) | > 100 µM (inactive) | > 100 µM (inactive) | > 100 µM (inactive) | 29.6 µM (inactive) | > 100 µM (inactive) | > 100 µM (inactive) | 88.7 µM (inactive) | 97.9 µM (inactive) | 24 µM (inactive) |
| Nc1n[nH]c2c1Cc1c(n(Cc3ccc(Cl)cc3)c3ccccc13)C(=O)N2 | 13.7 µM (inactive) | 18.7 µM (inactive) | 10.4 µM (inactive) | 3.03 µM (inactive) | 16.1 µM (inactive) | 2.65 µM (inactive) | 5.66 µM (inactive) | 14.7 µM (inactive) | 10.6 µM (inactive) | 14.1 µM (inactive) | 14.2 µM (inactive) | 5.69 µM (inactive) | 17.1 µM (inactive) | 38.1 µM (inactive) | 15.9 µM (inactive) | 18.1 µM (inactive) | > 10 µM (inactive) | 18 µM (inactive) | 20.3 µM (inactive) | 4.82 µM (inactive) |
| C=C1CC[C@@H](Br)C(C)(C)[C@]12CCC(C)(O)C(Cl)C2 (stereo not given in full) | 28.9 µM (inactive) | 19.1 µM (inactive) | 23.3 µM (inactive) | 19.9 µM (inactive) | 16.8 µM (inactive) | 22.4 µM (inactive) | 18.7 µM (inactive) | 30.3 µM (inactive) | 26.1 µM (inactive) | 20.3 µM (inactive) | 19.5 µM (inactive) | 17.5 µM (inactive) | 17.4 µM (inactive) | 20 µM (inactive) | 18.5 µM (inactive) | 19.5 µM (inactive) | 16.2 µM (inactive) | 17.9 µM (inactive) | 18.5 µM (inactive) | 18.1 µM (inactive) |
| CCOC(=O)CCc1c(C)c2c(O)cc(O)cc2oc1=O | > 100 µM (inactive) | > 100 µM (inactive) | > 100 µM (inactive) | 42.1 µM (inactive) | > 100 µM (inactive) | > 100 µM (inactive) | > 54.6 µM (inactive) | > 100 µM (inactive) | > 100 µM (inactive) | > 100 µM (inactive) | > 100 µM (inactive) | > 78.9 µM (inactive) | > 100 µM (inactive) | > 100 µM (inactive) | > 76.4 µM (inactive) | > 100 µM (inactive) | 53.8 µM (inactive) | > 100 µM (inactive) | > 100 µM (inactive) | > 87.1 µM (inactive) |
| Nc1c(S(=O)(=O)O)cc(S(=O)(=O)O)c2ccc(/N=N/c3ccc(/C=C/c4ccc(/N=N/c5ccc6c(S(=O)(=O)O)cc(S(=O)(=O)O)c(N)c6c5O)cc4S(=O)(=O)O)c(S(=O)(=O)O)c3)c(O)c12 | > 100 µM (inactive) | > 100 µM (inactive) | > 100 µM (inactive) | 36.1 µM (inactive) | > 100 µM (inactive) | > 100 µM (inactive) | > 100 µM (inactive) | > 100 µM (inactive) | > 100 µM (inactive) | > 100 µM (inactive) | 59.4 µM (inactive) | > 85.1 µM (inactive) | > 100 µM (inactive) | > 100 µM (inactive) | > 100 µM (inactive) | 97.1 µM (inactive) | > 100 µM (inactive) | > 100 µM (inactive) | > 100 µM (inactive) | 37.1 µM (inactive) |
| CCOC(=O)/C=C1/C(CCCOCc2ccccc2)C2CCCC23CC2(CCN13)OCCO2 (stereo not given) | 19.9 µM (inactive) | 34.8 µM (inactive) | 25.8 µM (inactive) | 10.2 µM (inactive) | 16.9 µM (inactive) | 13.5 µM (inactive) | 11.4 µM (inactive) | 16.1 µM (inactive) | 12.5 µM (inactive) | 18.3 µM (inactive) | 44 µM (inactive) | 6.32 µM (inactive) | 42 µM (inactive) | 18.4 µM (inactive) | 17 µM (inactive) | 43 µM (inactive) | 20.1 µM (inactive) | 19.5 µM (inactive) | 15.2 µM (inactive) | 17.2 µM (inactive) |
| CC1=C(SCCO)C(=O)c2ccccc2C1=O | 16.9 µM (inactive) | 8.41 µM (inactive) | 16.6 µM (inactive) | 0.55 µM (active) | 19.3 µM (inactive) | 3.18 µM (inactive) | 0.324 µM (active) | 14.2 µM (inactive) | 12.6 µM (inactive) | 2.82 µM (inactive) | 17.9 µM (inactive) | 13.4 µM (inactive) | 15.5 µM (inactive) | 11 µM (inactive) | 11.7 µM (inactive) | 16 µM (inactive) | 13.3 µM (inactive) | 13 µM (inactive) | 14.9 µM (inactive) | 8.63 µM (inactive) |
